“Also recorded” adds a separate entry of the source.
Tested on: OIR mice
Experiment: Oxygen-induced retinopathy (OIR) model, CD31 whole-mount staining of retina
Assay type: in vivo
Conditions: intravitreal injection at P12 or eye drop administration P12 to P17
Text: As TRAP1+/+(wild-type), TRAP1+/−(hetero), and TRAP1−/− (knockout) experimental mice, Black6 J strain mice were used. On the 7th day after birth, a baby mouse and a mother mouse were placed in an in vivo chamber (Coy-lab) and supplied with high oxygen (75% O2). On the 12th day after birth, the baby mouse was taken out of the in vivo chamber. Then, a surrogate mother was put thereinto, and normal oxygen (21% O2) was supplied. Then, the eyeball of the baby mouse was removed on the 17th day after birth and used for experiments.
In the process of forming the in vivo oxygen-induced retinopathy (OIR) model, the baby mouse was treated with eye drops for 6 days, from the day when being taken out to normal oxygen after being supplied with high oxygen until the day their eyes were collected (on the 12th day to 17th day after birth). Treatment was performed three times a day at intervals of 4 hours. As a drug treatment method, Mito Q was diluted to a concentration of 1 mM in Liposic and dropped 10 uL into the eyes of the baby mouse. Then, the eyes were allowed to blink for 1 minute. After wiping the residual amount outside the eyeball with a cotton swab, the mouse was returned to the care of the mother mouse. […]

## COC1=C(OC)C(=O)C(C[P+](c2ccccc2)(c2ccccc2)c2ccccc2)=C(C)C1=O [MitoQ^S, ((4,5-Dimethoxy-2-methyl-3,6-dioxocyclohexa-1,4-dien-1-yl)methyl)triphenylphosphonium]
  avascular and neovascular areas in the retina of the OIR model: both avascular and neovascular areas are significantly reduced; also recorded: significantly reduces both avascular and neovascular areas
